In patent publication US20210169854A1, “3'-[(2Z)-[1-(3,4-dimethylphenyl)-1,5-dihydro-3-methyl-5-oxo-4H-pyrazol-4-ylidene]hydrazino]-2'-hydroxy-[1,1'-biphenyl]-3-carboxylic acid and its salts formulation” (NOVARTIS AG, priority 2019, published 2021):
Where two headings read alike, the source gives them in different places.

Experiments:
[1] = cited from earlier work
[2] = standard high-fat breakfast; cited from earlier work
[3] = Solubility and permeability of eltrombopag (general statements, data not shown); assay type: physicochemical; conditions: even in the form of bis-monoethanolamine salt
[4] = cited from earlier work; remark: listed apart in the source
[5] = cited from earlier work; remark: listed apart in the source
[6] = single 25-mg dose for oral suspension 2 hours after the high-calcium meal
[7] = single 25-mg dose for oral suspension 2 hours before the high-calcium meal
[8] = single 25-mg dose for oral suspension with a high-calcium, moderate-fat, moderate-calorie meal

| SMILES | AUC elevation compared with the fasted state ([1]; after a high fat meal) [fold] | Cmax elevation compared with the fasted state ([1]; after a high fat meal) [fold] | AUC elevated compared with the fasted state ([1]; after a low fat meal) [fold] | Cmax elevated compared with the fasted state ([1]; after a low fat meal) [fold] | decrease of plasma eltrombopag AUCO-∞ [2] | decrease of plasma eltrombopag Cmax [2] [%] | solubility in water and in a number of liquid/semisolid surfactants [3] | solubility (BCS context) [4] | reduction of plasma eltrombopag AUCO-∞ [5, 6] [%] | reduction of plasma eltrombopag Cmax [5, 6] [%] | reduction of plasma eltrombopag AUCO-∞ [5, 7] [%] | reduction of plasma eltrombopag Cmax [5, 7] [%] | reduction of plasma eltrombopag AUCO-∞ [5, 8] [%] | reduction of plasma eltrombopag Cmax [5, 8] [%] |
| --- | --- | --- | --- | --- | --- | --- | --- | --- | --- | --- | --- | --- | --- | --- |
| C[C@]12CC[C@H](O)CC1=CC[C@@H]1[C@@H]2CC[C@]2(C)C(c3cccnc3)=CC[C@@H]12 [abiraterone] | 10 | 17 | 5 | 7 | – | – | – | – | – | – | – | – | – | – |
| CC1=NN(c2ccc(C)c(C)c2)C(=O)/C1=N\Nc1cccc(-c2cccc(C(=O)O)c2)c1O [eltrombopag, 3′-[(2Z)-[1-(3,4-dimethylphenyl)-1,5-dihydro-3-methyl-5-oxo-4H-pyrazol-4-ylidene]hydrazino]-2′-hydroxy-[1,1′-biphenyl]-3-carboxylic acid] | – | – | – | – | approximately 59% | 65 | low solubility | low soluble | 47 | 48 | 20 | 14 | 75 | 79 |
